1 compound from patent EP1596818B1, “COSMETIC COMPOSITION WITH A WHITENING EFFECT, METHOD FOR THE PRODUCTION AND USE THEREOF” (Riemschneider, Randolph, Dr. Dr. Prof., priority 2003, dated 2004) can be followed below.

Read-outs that look alike come from different tables or passages of the source.

The nature of data set [1]: B16 melanoma cell test for whitening effect (inhibition of melanin production). The format is cell-based, Mäusen. The settings on record: mouse, b16 melanoma cells, cell number relative to control (1,00), read-out: Relativwert. The procedure: (§1) Nach Zerstörung der Emulsion der Handcreme durch Wasserzusatz und Erhitzen auf 80 °C wurde die wässrige Phase abgetrennt, im Vakuum eingeengt und der Zentrifugenrückstand wurde gefriergetrocknet.
(§2) Definierte Mengen des dabei erhaltenen Lyophilisats wurden in entionisiertem Wasser gelöst und nach den Angaben in dem weiter unten beschriebenen Testverfahren behandelt. Tabelle 1
(§3) Die grobe Beurteilung der Whitening-Effekte wurde vorgenommen nach der Abtrennung der Zellen unter Verwendung von 6 ml EDTA-Lösung und Auszählen der Zellen, z.B. Tabelle 1 und Tabelle 3 (Beurteilungskriterien auf S. 15).
(§4) • 1. Herstellung und Sterilisierung eines Test-Kulturmediums • 2. Herstellung einer Zellenflotationslösung • 3. Einstellung des pH-Wertes des Kulturmediums • 4. Ausstreichen des Kulturmediums auf einer Petrischale • 5. Einimpfen von B16-Melanom-Zellen von Mäusen • 6. […] Auswechseln des Kulturmediums am 3. Tag • 8.

Data set [2] deals with B16-Melanom-Zellen von Mäusen. The data set is described as above. The settings on record: for Anzahl der Zellen: lyophilisate from aqueous phase of the hand cream, 6 days culture. The format is cell-based. The procedure:
as §1, §2, §3, §4

Data set [3] deals with Tyrosinase. In words: Tyrosinase inhibitor rate. The format is biochemical.
The nature of data set [4]: Preclinical test of local tolerability. The source says:
Zusammenfassung: der Wirkstoff Methyl-ADAPD ist im Patch-Test auf allergisierendes Potenzial geprüft worden. In einer präklinischen Prüfung wurde die lokale Verträglichkeit abgeklärt.

The mark [5] stands for this setting: Wirkstoff-Gehalt 1,25 mg/ml Lösung.
[6] abbreviates: Wirkstoff-Gehalt 2,5 mg/ml Lösung.

`CC(=O)C1C(=O)C=C(C)OC1=O` (stereo not drawn) [Methyl-ADAPD]: the values for the viability at 144 h in data set [1] (setting [5]) and in data set [1] (setting [6]) were 92% and 86%, respectively. In addition, the results for the Whitening-Effekt result in data set [2] (setting [5]) and in data set [2] (setting [6]) were “+” and “+++”, respectively. Moreover, the “Anzahl der Zellen” value in data set [2] (setting [5]) is given as 82x10^4; in data set [2] (setting [6]) it was 79x10^4. Also, the Tyrosinase-Inhibitorrate is 84% in data set [3] (Wirkstoff-Gehalt 0,5 mg/ml Lösung) and 99,1% in data set [3] (Wirkstoff-Gehalt 5 mg/ml Lösung). For the same compound, the “lokale Verträglichkeit” value in data set [4] was “keine Bedenken”.
